Results reported in patent US10004701B2, “Methods and compositions for treating infection” (UNIVERSITY OF ROCHESTER, priority 2012, dated 2018).
Where a name gives a salt, the structure may show the parent alone. Read-outs that look alike come from different tables or passages of the source.

What was measured:
Test in all cases: AK assay 384-well format, Prestwick library screening
[1] = test system: S. aureus strain USA300-0114; type: cell-based, Staphylococcus aureus; details: for fold induction at 50 µM: Staphylococcus aureus, USA300, 3 h
E. coli = type: cell-based, Escherichia coli; details: for fold induction at 50 µM: Escherichia coli, 3 h
[2] = test system: A. baumannii strain 98-37-09; type: cell-based, Acinetobacter baumannii; details: for fold induction at 50 µM: Acinetobacter baumannii, 983709, 3 h
E. faecium = type: cell-based, Enterococcus faecium; details: for fold induction at 50 µM: Enterococcus faecium, 3 h
E. cloacae = type: cell-based, Enterobacter cloacae; details: for fold induction at 50 µM: Enterobacter cloacae, 3 h
P. aeruginosa = type: cell-based, Pseudomonas aeruginosa; details: for fold induction at 50 µM: Pseudomonas aeruginosa, 3 h
K. pneumoniae = type: cell-based, Klebsiella pneumoniae; details: for fold induction at 50 µM: Klebsiella pneumoniae, 3 h
[3] = planktonic S. aureus, 50 μM final drug concentration, 384-well, cutoff for positive-scoring molecules 3-fold increase, read-out: AK-based Prestwick Library Screening Results: S. aureus (increase in extracellular AK activity)
[4] = planktonic E. coli, 50 μM final drug concentration, 384-well, cutoff for positive-scoring molecules 3-fold increase, read-out: AK-based Prestwick Library Screening Results: E. coli (increase in extracellular AK activity)
[5] = planktonic A. baumannii, 50 μM final drug concentration, 384-well, cutoff for positive-scoring molecules 3-fold increase, read-out: AK-based Prestwick Library Screening Results: A. baumannii (increase in extracellular AK activity)
[6] = planktonic E. faecium, 50 μM final drug concentration, 384-well, cutoff for positive-scoring molecules 3-fold increase, read-out: AK-based Prestwick Library Screening Results: E. faecium (increase in extracellular AK activity)
[7] = planktonic E. cloacae, 50 μM final drug concentration, 384-well, cutoff for positive-scoring molecules 3-fold increase, read-out: AK-based Prestwick Library Screening Results: E. cloacae (increase in extracellular AK activity)
[8] = planktonic P. aeruginosa, 50 μM final drug concentration, 384-well, cutoff for positive-scoring molecules 3-fold increase, read-out: AK-based Prestwick Library Screening Results: P. aeruginosa (increase in extracellular AK activity)
[9] = planktonic K. pneumoniae, 50 μM final drug concentration, 384-well, cutoff for positive-scoring molecules 3-fold increase, read-out: AK-based Prestwick Library Screening Results: K. pneumoniae (increase in extracellular AK activity)
[10] = 50 μM final drug concentration, planktonic, cutoff for positive-scoring molecules 3-fold increase
[11] = planktonic S. aureus, 50 μM final drug concentration, […], read-out: AK-based Prestwick library screening result, S. aureus (fold increase in extracellular AK activity)
[12] = planktonic E. coli, 50 μM final drug concentration, […], read-out: AK-based Prestwick library screening result, E. coli (fold increase in extracellular AK activity)
[13] = planktonic A. baumannii, 50 μM final drug concentration, […], read-out: AK-based Prestwick library screening result, A. baumannii (fold increase in extracellular AK activity)
[14] = planktonic E. faecium, 50 μM final drug concentration, […], read-out: AK-based Prestwick library screening result, E. faecium (fold increase in extracellular AK activity)
[15] = planktonic E. cloacae, 50 μM final drug concentration, […], read-out: AK-based Prestwick library screening result, E. cloacae (fold increase in extracellular AK activity)
[16] = planktonic P. aeruginosa, 50 μM final drug concentration, […], read-out: AK-based Prestwick library screening result, P. aeruginosa (fold increase in extracellular AK activity)
[17] = planktonic K. pneumoniae, 50 μM final drug concentration, […], read-out: AK-based Prestwick library screening result, K. pneumoniae (fold increase in extracellular AK activity)
[18] = 50 μM final drug concentration, 384-well format, cutoff for positive-scoring molecules 3-fold increase, read-out: AK-based Prestwick Library Screening Results, S. aureus (increase in extracellular AK activity)
[19] = 50 μM final drug concentration, 384-well format, cutoff for positive-scoring molecules 3-fold increase, read-out: AK-based Prestwick Library Screening Results, E. coli (increase in extracellular AK activity)
[20] = 50 μM final drug concentration, 384-well format, cutoff for positive-scoring molecules 3-fold increase, read-out: AK-based Prestwick Library Screening Results, A. baumannii (increase in extracellular AK activity)
[21] = 50 μM final drug concentration, 384-well format, cutoff for positive-scoring molecules 3-fold increase, read-out: AK-based Prestwick Library Screening Results, E. faecium (increase in extracellular AK activity)
[22] = 50 μM final drug concentration, 384-well format, cutoff for positive-scoring molecules 3-fold increase, read-out: AK-based Prestwick Library Screening Results, E. cloacae (increase in extracellular AK activity)
[23] = 50 μM final drug concentration, 384-well format, cutoff for positive-scoring molecules 3-fold increase, read-out: AK-based Prestwick Library Screening Results, P. aeruginosa (increase in extracellular AK activity)
[24] = 50 μM final drug concentration, 384-well format, cutoff for positive-scoring molecules 3-fold increase, read-out: AK-based Prestwick Library Screening Results, K. pneumoniae (increase in extracellular AK activity)

CCN(CC)CC#CCOC(=O)C(O)(c1ccccc1)C1CCCCC1 (centres unmarked) [Oxybutynin chloride]
fold induction at 50 µM [1, 3]: 1.2
fold induction at 50 µM (E. coli; [4]): 1.4
fold induction at 50 µM [2, 5]: 1.1
fold induction at 50 µM (E. faecium; [6]): 1.1
fold induction at 50 µM (E. cloacae; [7]): 1.6
fold induction at 50 µM (P. aeruginosa; [8]): 1
fold induction at 50 µM (K. pneumoniae; [9]): 0.9

Butirosin disulfate salt
AK-based Prestwick Library Screening Results, S. aureus (fold increase in extracellular AK activity) [1, 10]: 0.5
AK-based Prestwick Library Screening Results, E. coli (fold increase in extracellular AK activity) (E. coli; 50 μM final drug concentration, planktonic, […]): 0.5
AK-based Prestwick Library Screening Results, A. baumannii (fold increase in extracellular AK activity) [2, 10]: 0.5
AK-based Prestwick Library Screening Results, E. faecium (fold increase in extracellular AK activity) (E. faecium; [10]): 0.8
AK-based Prestwick Library Screening Results, E. cloacae (fold increase in extracellular AK activity) (E. cloacae; [10]): 0.4
AK-based Prestwick Library Screening Results, P. aeruginosa (fold increase in extracellular AK activity) (P. aeruginosa; [10]): 0.5
AK-based Prestwick Library Screening Results, K. pneumoniae (fold increase in extracellular AK activity) (K. pneumoniae; [10]): 0.5

CC(=C(CCO)SSCC1CCCO1)N(C=O)Cc1cnc(C)nc1N (stereo in doubt) [Fursultiamine Hydrochloride]
fold induction at 50 µM ([1]; read-out: AK-based Prestwick library screening result, S. aureus (fold increase in extracellular AK activity)): 1
fold induction at 50 µM (E. coli; read-out: AK-based Prestwick library screening result, E. coli (fold increase in extracellular AK activity)): 1.4
fold induction at 50 µM ([2]; read-out: AK-based Prestwick library screening result, A. baumannii (fold increase in extracellular AK activity)): 1.3
fold induction at 50 µM (E. faecium; read-out: AK-based Prestwick library screening result, E. faecium (fold increase in extracellular AK activity)): 1.1
fold induction at 50 µM (E. cloacae; read-out: AK-based Prestwick library screening result, E. cloacae (fold increase in extracellular AK activity)): 1.2
fold induction at 50 µM (P. aeruginosa; read-out: AK-based Prestwick library screening result, P. aeruginosa (fold increase in extracellular AK activity)): 1.1
fold induction at 50 µM (K. pneumoniae; read-out: AK-based Prestwick library screening result, K. pneumoniae (fold increase in extracellular AK activity)): 1

Cc1nc2n(c(=O)c1CCN1CCC(c3noc4cc(F)ccc34)CC1)CCCC2 [Risperidone]
fold induction at 50 µM [1, 11]: 1.3
fold induction at 50 µM (E. coli; [12]): 1.1
fold induction at 50 µM [2, 13]: 1.5
fold induction at 50 µM (E. faecium; [14]): 1
fold induction at 50 µM (E. cloacae; [15]): 1.3
fold induction at 50 µM (P. aeruginosa; [16]): 1.1
fold induction at 50 µM (K. pneumoniae; [17]): 1.1

C[C@]12C=CC(=O)C=C1CC[C@@H]1[C@@H]2[C@@H](O)C[C@@]2(C)[C@H]1CC[C@]2(O)C(=O)CO [Prednisolone]
fold induction at 50 µM [1, 18]: 0.8
fold induction at 50 µM (E. coli; [19]): 1
fold induction at 50 µM [2, 20]: 1
fold induction at 50 µM (E. faecium; [21]): 1
fold induction at 50 µM (E. cloacae; [22]): 1.3
fold induction at 50 µM (P. aeruginosa; [23]): 1
fold induction at 50 µM (K. pneumoniae; [24]): 0.7

CN(C)[C@@H]1C(O)=C(C(=O)NCNCCCC[C@H](N)C(=O)O)C(=O)[C@@]2(O)C(O)=C3C(=O)c4c(O)cccc4[C@@](C)(O)[C@H]3C[C@@H]12 [Lymecycline]
fold induction at 50 µM [1, 11]: 0.7
fold induction at 50 µM (E. coli; [12]): 0.8
fold induction at 50 µM [2, 13]: 0.8
fold induction at 50 µM (E. faecium; [14]): 1
fold induction at 50 µM (E. cloacae; [15]): 1.2
fold induction at 50 µM (P. aeruginosa; [16]): 0.7
fold induction at 50 µM (K. pneumoniae; [17]): 0.7

CC(C)N(CCC(C(N)=O)(c1ccccc1)c1ccccn1)C(C)C (centres unmarked) [Disopyramide]
fold induction at 50 µM [1, 18]: 2.7
fold induction at 50 µM (E. coli; [19]): 0.9
fold induction at 50 µM [2, 20]: 0.9
fold induction at 50 µM (E. faecium; [21]): 0.9
fold induction at 50 µM (E. cloacae; [22]): 1
fold induction at 50 µM (P. aeruginosa; [23]): 0.9
fold induction at 50 µM (K. pneumoniae; [24]): 0.6

COc1ccc([C@@H]2Sc3ccccc3N(CCN(C)C)C(=O)[C@@H]2OC(C)=O)cc1 [Diltiazem hydrochloride]
fold induction at 50 µM [1, 3]: 0.8
fold induction at 50 µM (E. coli; [4]): 1
fold induction at 50 µM [2, 5]: 1
fold induction at 50 µM (E. faecium; [6]): 0.9
fold induction at 50 µM (E. cloacae; [7]): 1.5
fold induction at 50 µM (P. aeruginosa; [8]): 0.9
fold induction at 50 µM (K. pneumoniae; [9]): 1

O=C(O)COCCN1CCN(C(c2ccccc2)c2ccc(Cl)cc2)CC1 (centres unmarked) [Cetirizine dihydrochloride]
fold induction at 50 µM ([1]; planktonic S. aureus, 50 μM final drug concentration, cutoff for positive-scoring molecules 3-fold increase, read-out: AK-based Prestwick Library Screening Results, S. aureus (increase in extracellular AK activity)): 0.7
fold induction at 50 µM (E. coli; planktonic E. coli, 50 μM final drug concentration, cutoff for positive-scoring molecules 3-fold increase, read-out: AK-based Prestwick Library Screening Results, E. coli (increase in extracellular AK activity)): 0.9
fold induction at 50 µM ([2]; planktonic A. baumannii, 50 μM final drug concentration, cutoff for positive-scoring molecules 3-fold increase, read-out: AK-based Prestwick Library Screening Results, A. baumannii (increase in extracellular AK activity)): 1.1
fold induction at 50 µM (E. faecium; planktonic E. faecium, 50 μM final drug concentration, cutoff for positive-scoring molecules 3-fold increase, read-out: AK-based Prestwick Library Screening Results, E. faecium (increase in extracellular AK activity)): 0.9
fold induction at 50 µM (E. cloacae; planktonic E. cloacae, 50 μM final drug concentration, cutoff for positive-scoring molecules 3-fold increase, read-out: AK-based Prestwick Library Screening Results, E. cloacae (increase in extracellular AK activity)): 0.9
fold induction at 50 µM (P. aeruginosa; planktonic P. aeruginosa, 50 μM final drug concentration, cutoff for positive-scoring molecules 3-fold increase, read-out: AK-based Prestwick Library Screening Results, P. aeruginosa (increase in extracellular AK activity)): 0.9
fold induction at 50 µM (K. pneumoniae; planktonic K. pneumoniae, 50 μM final drug concentration, cutoff for positive-scoring molecules 3-fold increase, read-out: AK-based Prestwick Library Screening Results, K. pneumoniae (increase in extracellular AK activity)): 0.7

Clc1ccc(COC(Cn2ccnc2)c2ccc(Cl)cc2Cl)c(Cl)c1 (centres unmarked) [Miconazole]
fold induction at 50 µM [1, 3]: 2.2
fold induction at 50 µM (E. coli; [4]): 1.4
fold induction at 50 µM [2, 5]: 4.7
fold induction at 50 µM (E. faecium; [6]): 2.5
fold induction at 50 µM (E. cloacae; [7]): 1.6
fold induction at 50 µM (P. aeruginosa; [8]): 1.2
fold induction at 50 µM (K. pneumoniae; [9]): 1.4

Clc1ccc(Cn2c(CN3CCCC3)nc3ccccc32)cc1 [Clemizole hydrochloride]
fold induction at 50 µM [1, 3]: 1.6
fold induction at 50 µM (E. coli; [4]): 1.2
fold induction at 50 µM [2, 5]: 1.6
fold induction at 50 µM (E. faecium; [6]): 1.2
fold induction at 50 µM (E. cloacae; [7]): 1.4
fold induction at 50 µM (P. aeruginosa; [8]): 1.2
fold induction at 50 µM (K. pneumoniae; [9]): 1
